Data from patent US8088776B2 (Eli Lilly and Company, priority 2006, dated 2012).

How the values were obtained:
[1] = molecular target: recombinant human 11β-HSD type 1 enzyme (Homo sapiens, UniProt P28845); test: 11β-HSD Type 1 Enzyme Assay (NADPH fluorescence); assay type: biochemical; conditions: three hour incubation, read-out: Human 11-βHSD1 IC50
Procedure: 11β-HSD Type 1 Enzyme Assay
Human 11β-HSD type 1 activity is measured by assaying NADPH production by fluorescence assay. Solid compounds are dissolved in DMSO to a concentration of 10 mM. Twenty microliters of each are then transferred to a column of a 96-well polypropylene Nunc plate where they are further diluted 50-fold followed by subsequent two-fold titration, ten times across the plate with additional DMSO using a Tecan Genesis 200 automated system. Plates are then transferred to a Tecan Freedom 200 system with an attached Tecan Temo 96-well head and an Ultra 384 plate reader. Reagents are supplied in 96-well polypropylene Nunc plates and are dispensed individually into black 96-well Molecular Devices High Efficiency assay plates (40 μL/well capacity) in the following fashion: 9 μL/well of substrate (2.22 mM NADP, 55.5 μM Cortisol, 10 mM Tris, 0.25% Prionex, 0.1% Triton X100), 3 μL/well of water to compound wells or 3 μL to control and standard wells, 6 μL/well recombinant human 11β-HSD type 1 enzyme, 2 μL/well of compound dilutions. […] Final DMSO concentration is 0.5% for all compounds, controls and standards. […] Plates are then shaken once more for 15 seconds then placed into an Ultra 384 microplate reader (355EX/460EM) for detection of NADPH fluorescence.

[2] = tested on: cortisone to cortisol conversion (11β-HSD1) in male C57BL/6 mice; test: Acute In Vivo Cortisone Conversion Assay; conditions: oral dose of 10 mg/kg, cortisone challenge 16 hours post dose, serum cortisol
Procedure: Acute In Vivo Cortisone Conversion Assay
In general, compounds are dosed orally into mice, the mice are challenged with a subcutaneous injection of cortisone at a set timepoint after compound injection, and the blood of each animal is collected some time later. Separated serum is then isolated and analyzed for levels of cortisone and cortisol by LC-MS/MS, followed by calculation of mean cortisol and percent inhibition of each dosing group. Specifically, male C57BL/6 mice are obtained from Harlan Sprague Dawley at average weight of 25 grams. Exact weights are taken upon arrival and the mice randomized into groups of similar weights. Compounds are prepared in 1% w-w HEC, 0.25% w-w polysorbate 80, 0.05% w-w Dow Corning antifoam #1510-US at various doses based on assumed average weight of 25 grams. Compounds are dosed orally, 200 μl per animal, followed by a subcutaneous dose, 200 μl per animal, of 30 mg/kg cortisone at 1 to 24 hours post compound dose. At 10 minutes post cortisone challenge, each animal is euthanized for 1 minute in a CO2 chamber, followed by blood collection via cardiac puncture into serum separator tubes. Once fully clotted, tubes are spun at 2500×g, 4° C. for 15 minutes, the serum transferred to wells of 96-well plates (Corning Inc, Costar #4410, cluster tubes, 1.2 ml, polypropylene), and the plates are frozen at −20° C. until analysis by LC-MS/MS. […]

[3] = molecular target: T1, 11β-HSD1 in primary human aortic smooth muscle cells (AoSMC) (Homo sapiens, UniProt P28845); test: Human Aortic Smooth Muscle Cell Assay (cortisone to cortisol conversion); assay type: cell-based; conditions: AoSMC induced with hTNFα; cortisol by time resolved immunoassay
T1 construct: containing 12 ng/mL hTNFα to induce expression of 11β-HSD1; endogenous in cells; host or cells: primary human aortic smooth muscle cells (AoSMC), induced with hTNFα
T1 sequence (P28845 whole entry): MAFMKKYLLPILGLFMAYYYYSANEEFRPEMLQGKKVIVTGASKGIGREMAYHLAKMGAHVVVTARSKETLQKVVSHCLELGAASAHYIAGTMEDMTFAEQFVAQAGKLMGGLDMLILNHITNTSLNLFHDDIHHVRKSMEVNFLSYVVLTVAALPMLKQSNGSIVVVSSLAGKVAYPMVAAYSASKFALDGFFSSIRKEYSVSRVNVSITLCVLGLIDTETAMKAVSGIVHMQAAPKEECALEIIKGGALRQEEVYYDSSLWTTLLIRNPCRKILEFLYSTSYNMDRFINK
Procedure: Human Aortic Smooth Muscle Cell Assay
Primary human aortic smooth muscle cells (AoSMC) are cultured in 5% FBS growth medium to a passage number of 6, then pelleted by centrifugation and resuspended at a density of 9×10^4 cells/mL in 0.5% FBS assay medium containing 12 ng/mL hTNFα to induce expression of 11β-HSD1. Cells are seeded into 96-well tissue culture assay plates at 100 μL/well (9×10^3 cells/well) and incubated for 48 hours at 37° C., 5% CO2. Following induction, cells are incubated for 4 hours at 37° C., 5% CO2 in assay medium containing test compounds then treated with 10 μL/well of 10 μM cortisone solubilized in assay medium, and incubated for 16 hours at 37° C., 5% CO2. Medium from each well is transferred to a plate for subsequent analysis of cortisol using a competitive fluorescence resonance time resolved immunoassay. In solution, an allophycocyanin (APC)-cortisol conjugate and free cortisol analyte compete for binding to a mouse anti-cortisol antibody/Europium (Eu)-anti mouse IgG complex. Higher levels of free cortisol result in diminishing energy transfer from the Europium-IgG to the APC-cortisol complex resulting in less APC fluorescence. Fluorescent intensities for Europium and APC are measured using a LJL Analyst AD. Europium and APC excitation is measured using 360 nm excitation and 615 nm and 650 nm emission filters respectively. Time resolved parameters for Europuium were 1000 μs integration time with a 200 μs delay. APC parameters are set at 150 μs integration time with a 50 μs delay. Fluorescent intensities measured for APC are modified by dividing by the Eu fluorescence (APC/Eu). This ratio is then used to determine the unknown cortisol concentration by interpolation using a cortisol standard curve fitted with a 4-parameter logistic equation. These concentrations are then used to determine compound activity by plotting concentration versus % inhibition, fitting with a 4-parameter curve and reporting the IC50.

Chain of recombinant human 11β-HSD type 1 enzyme (P28845 whole entry): as above

O=C(c1ccc(-c2cc(Cl)c(CC3CCN(C4CCCCC4)C3=O)c(Cl)c2)cc1)N1CCN(CCF)CC1 (single isomer, unassigned) [Example 62, 1-cyclohexyl-3-{3,5-dichloro-4′-[4-(2-fluoro-ethyl)-piperazine-1-carbonyl]-biphenyl-4-ylmethyl}-pyrrolidin-2-one]
IC50 [1]: 115 nM | % Inhibition after 16 hours (dose of 10 (mg/kg)) [2]: 85%

O=C(c1ccc(-c2cc(Cl)c(CC3CCN(C4CCCCC4)C3=O)c(Cl)c2)cc1)N1CCOCC1 (stereo not shown) [Example 4, 1-Cyclohexyl-3-[3,5-dichloro-4′-(morpholine-4-carbonyl)-biphenyl-4-ylmethyl]-pyrrolidin-2-one]
IC50 [3]: 4.3 nM

COCCN(CCOC)C(=O)c1ccc(-c2cc(Cl)c(CC3CCN(C4CCCCC4)C3=O)c(Cl)c2)cc1 (stereo not shown) [Example 5]
IC50 [3]: 6.4 nM

O=C(c1ccc(-c2cc(Cl)c(CC3CCN(C4CCCCC4)C3=O)c(Cl)c2)cc1)N1CCNCC1 (stereo not shown) [Example 49, 1-cyclohexyl-3-[3,5-dichloro-4′-(piperazine-1-carbonyl)-biphenyl-4-ylmethyl]-pyrrolidin-2-one]
IC50 [3]: 11.4 nM

O=C(c1ccc(-c2cc(Cl)c(CC3CCN([C@H]4CC[C@@H](O)CC4)C3=O)c(Cl)c2)cc1)N1CCS(=O)(=O)CC1 (stereo partly drawn) [Example 74, 3-[3,5-Dichloro-4′-(1,1-dioxo-1-lambda*6*-thiomorpholine-4-carbonyl)-biphenyl-4-ylmethyl]-cis-1-(4-hydroxy-cyclohexyl)-pyrrolidin-2-one]
IC50 [3]: 6 nM

O=C(c1ccc(-c2cc(Cl)c(C[C@@H]3CCN(C4CC=CCC4)C3=O)c(Cl)c2)cc1)N1CCC(C(F)(F)F)CC1 (stereo partly drawn) [Example 92, (R)-1-cyclohex-3-enyl-3-[3,5-dichloro-4′-(4-trifluoromethyl-piperidine-1-carbonyl)-biphenyl-4-ylmethyl]-pyrrolidin-2-one]
IC50 [1]: 633 nM | IC50 [3]: 36.8 nM

O=C(c1ccc(-c2cc(Cl)c(C[C@@H]3CCN(C4CCOCC4)C3=O)c(Cl)c2)cc1)N1CCC(C(F)(F)F)CC1 [Example 95, (R)-3-[3,5-dichloro-4′-(4-trifluoromethyl-piperidine-1-carbonyl)-biphenyl-4-ylmethyl]-1-(tetrahydro-pyran-4-yl)-pyrrolidin-2-one]
% Inhibition after 16 hours (dose of 10 (mg/kg)) [2]: 80%

O=C(c1ccc(-c2cc(Cl)c(C[C@@H]3CCN(C4CCOCC4)C3=O)c(Cl)c2)cc1)N1CCS(=O)(=O)CC1 [Example 99, (R)-3-[3,5-Dichloro-4′-(1,1-dioxo-116-thiomorpholine-4-carbonyl)-biphenyl-4-ylmethyl]-1-(tetrahydro-pyran-4-yl)-pyrrolidin-2-one]
IC50 [3]: 72.8 nM
